# Values of other authors as cited in patent US20060019984A1, “Treatment of diseases with alpha-7nACh receptor full agonists” (Pfizer Inc, priority 2003, published 2006).
# What was measured:
# [1] = molecular target: T1, 5HT3R (Homo sapiens, UniProt P46098); details: general statement, no method or value given
# T1 sequence (P46098 24-478): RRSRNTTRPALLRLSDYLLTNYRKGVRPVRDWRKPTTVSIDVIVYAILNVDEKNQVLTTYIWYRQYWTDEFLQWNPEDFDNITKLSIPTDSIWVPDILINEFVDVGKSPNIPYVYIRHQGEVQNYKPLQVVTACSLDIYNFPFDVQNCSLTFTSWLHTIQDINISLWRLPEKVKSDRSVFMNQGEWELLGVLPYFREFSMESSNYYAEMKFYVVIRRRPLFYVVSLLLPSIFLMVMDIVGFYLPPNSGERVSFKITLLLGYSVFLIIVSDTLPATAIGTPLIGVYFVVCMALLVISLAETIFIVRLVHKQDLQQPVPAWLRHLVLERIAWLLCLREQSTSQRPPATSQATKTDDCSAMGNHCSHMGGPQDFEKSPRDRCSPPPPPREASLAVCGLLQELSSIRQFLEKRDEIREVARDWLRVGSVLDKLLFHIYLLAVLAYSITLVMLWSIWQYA
# [2] = molecular target: α7 nAChR (Homo sapiens, UniProt P36544); details: general statement, no method or value given
# Sequence of α7 nAChR (P36544 23-502): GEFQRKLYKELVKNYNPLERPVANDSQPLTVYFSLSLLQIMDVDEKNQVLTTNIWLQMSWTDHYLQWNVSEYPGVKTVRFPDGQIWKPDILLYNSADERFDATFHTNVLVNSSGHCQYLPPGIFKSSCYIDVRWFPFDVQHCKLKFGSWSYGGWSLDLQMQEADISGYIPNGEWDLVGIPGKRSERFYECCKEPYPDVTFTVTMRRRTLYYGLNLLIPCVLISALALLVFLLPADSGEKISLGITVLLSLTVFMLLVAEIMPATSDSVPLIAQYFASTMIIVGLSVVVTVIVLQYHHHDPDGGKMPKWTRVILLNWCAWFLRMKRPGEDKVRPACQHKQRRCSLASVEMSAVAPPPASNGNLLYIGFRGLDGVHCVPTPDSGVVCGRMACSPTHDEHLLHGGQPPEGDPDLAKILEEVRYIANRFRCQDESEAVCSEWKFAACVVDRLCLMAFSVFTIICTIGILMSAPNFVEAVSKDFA
activity at the 5HT3R [1],activity at the α7 nAChR [2],Compound
little activity,,COc1ccc(/C=C2\CCCN=C2c2cccnc2)c(OC)c1 [GTS-21]
,little activity,Cc1nccn1CC1CCc2c(c3ccccc3n2C)C1=O (centres unmarked) [Ondansetron]
